Laboratory results: US7687476B2, “Specific inhibitors of acute and chronic inflammation” (priority 2001, dated 2010)
“Also recorded” adds a separate entry of the source.

Experiments:
[1] = system: L-cells transfected with E-selectin; assay: static adhesion of neutrophils to L-cells transfected with E-selectin (myeloperoxidase readout); assay type: cell-based, human; details: for adhesion of neutrophils to E-selectin transfected L-cells: preincubation 45 min, adhesion 20 min at 37° C., static assay; for order of potency of lead compounds: proposed from the adhesion experiments
Description: L-cells permanently transfected with full-length E-selectin by electroporation. Human neutrophils were isolated from EDTA whole blood by density centrifugation. Purity and total number were determined by standard haematology instruments, L-cells were grown in 96-well microtiter plates.
L-cells and neutrophils were pre-incubated with respective substances for 45 min at 37° C. Neutrophils were then allowed to adhere to L-cells in the presence of different substances for 20 min at 37° C. Non-adherent cells were removed by repeated washings and the number of adherent cells determined by measuring myeloperoxidase content. Since binding of neutrophils to selectin is calcium dependent, EGTA (which chelates calcium) was used as a negative control.
L-cells and neutrophils were preincubated with decreasing concentrations of maltose, fucose, and thymidine (1 mM, 10 μM, 0.1 μM, and 1 nM) for 45 min at 37° C. Neutrophils were then allowed to adhere to L-cells in the presence of respective substances for 20 min at 37° C. Non-adherent cells were removed by repeated washings and the number of adherent cells determined by measuring myeloperoxidase content.
L-cells were grown in 96-well microtiter plates. L-cells and neutrophils were preincubated with decreasing concentrations of EGTA (10 mM, 1 mM, 0.1 mM, 10 μM) for 45 min at 37° C. Neutrophils were then allowed to adhere to L-cells in the presence of EGTA for 20 min at 37° C. Non-adherent cells were removed by repeated washings and the number of adherent cells was determined by measuring myeloperoxidase content.

[2] = system: TNF stimulated HUVEC; assay: neutrophil adhesion to TNF stimulated HUVEC; assay type: cell-based, human; details: for inhibition of adhesion of neutrophils to TNF stimulated HUVEC / adhesion of neutrophils to TNF stimulated / activated HUVEC (in words): HUVEC stimulated with TNF 4 h; for inhibition of adhesion of neutrophils to TNF stimulated HUVEC: neutrophils preincubated 30 min at 37° C.
Description: To further extend the finding from L-cells the binding of neutrophils to TNF activated endothelium (HUVEC) was studied.
Endothelial cells were grown in 96-well microtiter plates to confluence. They were stimulated with TNF for 4 h at 37° C. Isolated neutrophils were incubated for 30 min at 37° C. with respective substances. The endothelial cells were washed after 4 h and 2×10^5 neutrophils were added to each well and the cells were allowed to adhere in the presence of the respective substances.

[3] = molecular target: T1, myeloperoxidase (Homo sapiens, UniProt P05164); assay: effect on neutrophil myeloperoxidase activity; assay type: cell-based; details: neutrophils, 100 μM to 10 nM, 2 hours at 37° C.
T1 construct: endogenous in cells; host or cells: human neutrophils isolated from EDTA whole blood
T1 sequence (P05164 279-745 limits assumed): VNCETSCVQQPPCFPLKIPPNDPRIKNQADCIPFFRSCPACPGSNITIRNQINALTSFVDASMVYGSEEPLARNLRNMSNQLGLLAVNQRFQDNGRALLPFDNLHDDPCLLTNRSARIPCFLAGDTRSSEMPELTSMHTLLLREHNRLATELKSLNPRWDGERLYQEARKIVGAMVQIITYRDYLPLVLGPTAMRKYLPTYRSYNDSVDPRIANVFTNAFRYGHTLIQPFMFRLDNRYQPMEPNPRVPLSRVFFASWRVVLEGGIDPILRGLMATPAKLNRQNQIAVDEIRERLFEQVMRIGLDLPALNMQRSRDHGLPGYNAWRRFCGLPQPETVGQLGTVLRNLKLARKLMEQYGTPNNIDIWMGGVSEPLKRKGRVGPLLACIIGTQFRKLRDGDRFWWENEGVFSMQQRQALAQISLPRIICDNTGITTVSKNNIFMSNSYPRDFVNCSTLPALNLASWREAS
T1 sequence (P05164 165-273 limits assumed): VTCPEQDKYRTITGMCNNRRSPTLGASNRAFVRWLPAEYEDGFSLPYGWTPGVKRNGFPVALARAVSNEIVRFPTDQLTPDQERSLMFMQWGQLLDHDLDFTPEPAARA
Description: Since the number of adherent neutrophils are calculated by measuring neutrophil myeloperoxidase activity, it could be argued that these substances could have a direct effect on myeloperoxidase activity and thus create a methodological artifact. Neutrophils were incubated with different concentrations of uridine, isomaltitol, and 4-thiouridine (100 μM, 10 μM, 1 μM, 100 nM, 10 nM) for 2 hours at 37° C.

[4] = system: E-selectin; assay: cell-ELISA of surface expression of E-selectin on stimulated endothelial cells; assay type: cell-based, human; details: simultaneous incubation of endothelium with different concentrations, 4 h at 37° C.
Description: The substances mentioned above should block the interaction of E-selectin with it's ligand and should not have any effect on cytokine induced up-regulation of adhesion molecules. A cell-ELISA was performed to assess the surface expression of adhesion molecules. Endothelial cells were grown in microtiter plates, stimulated with TNF or IL-1 with or without respective substances for 4 h at 37° C. After stimulation the cells were washed and fixed with formaldehyde. A cell-ELISA was performed in analogy to regular ELISA using primary and secondary antibodies.

[5] = system: Colo 201 cells / L-cells transfected with E-selectin; assay: adhesion of colon cancer cells Colo 201 to L-cells transfected with E-selectin; assay type: cell-based; details: E-selectin transfected L-cells (text of b26 says HUVEC)
Description: Although protein ligands have been characterised for the selectins, they recognise a number of carbohydrate and non-carbohydrate ligands. The hypothesis is that these compounds should block E-selectin-SLe^x interaction. To confirm this it was also tested if these substances can block adhesion of Colo 201 cells to L-cells.

myeloperoxidase activity [3]	SMILES	adhesion of neutrophils to E-selectin transfected L-cells [1]	inhibition of adhesion of neutrophils to TNF stimulated HUVEC [2]	order of potency of lead compounds [1]	adhesion of neutrophils to TNF stimulated / activated HUVEC (in words) [2]	concentration level at which the maximal effect on neutrophil adhesion to HUVEC occurs ([2]; TNF stimulated HUVEC)	TNF induced up-regulation of E-selectin [4]	adhesion of Colo 201 cells [5]
	Cc1cn([C@H]2C[C@H](O)[C@@H](CO)O2)c(=O)[nH]c1=O [thymidine, reference compound]	did not affect the adhesion of neutrophils						
do not affect myeloperoxidase activity	OC[C@H](O)[C@@H](O)[C@H](O)[C@H](O)CO[C@H]1O[C@H](CO)[C@@H](O)[C@H](O)[C@H]1O [isomaltitol]	could block adhesion of neutrophils	roughly 30%	4-thiouridine>isomaltitol>uridine				
	C[C@H](O)[C@@H](O)[C@@H](O)[C@H](O)C=O [fucose, reference compound]	did not affect the adhesion of neutrophils						
do not affect myeloperoxidase activity	O=c1[nH]c(=S)ccn1[C@@H]1O[C@H](CO)[C@@H](O)[C@H]1O [4-thiouridine]	could block adhesion of neutrophils	60%	4-thiouridine>isomaltitol>uridine	dose dependent inhibition	micromolar levels	did not affect TNF induced up-regulation of E-selectin	
do not affect myeloperoxidase activity	O=c1ccn([C@@H]2O[C@H](CO)[C@@H](O)[C@H]2O)c(=O)[nH]1 [uridine]	could block adhesion of neutrophils		4-thiouridine>isomaltitol>uridine				
	O=C(O)CN(CCOCCOCCN(CC(=O)O)CC(=O)O)CC(=O)O [EGTA, reference compound]	consistently blocks adhesion of neutrophils; also recorded: dose dependent inhibition of neutrophils adhesion to L-cells			blocked adhesion of neutrophils; also recorded: dose dependent inhibition of neutrophils adhesion to activated HUVEC			blocked adhesion of Colo 201 cells
	OC[C@H]1O[C@H](O[C@H]2[C@H](O)[C@@H](O)C(O)O[C@@H]2CO)[C@H](O)[C@@H](O)[C@@H]1O (mixture of isomers) [Maltose, maltose, reference compound]	did not affect the adhesion of neutrophils						
